Results taken from PubChem BioAssay AID330 (DTP/NCI, 2004).
Where “and” joins values, the source holds several entries; their conditions need not be identical. Equal entries are not always repeated. Toxic doses and inconclusive results are not listed. How the source made its calls: active means survival T/C of 150% or more; inactive means T/C below 125% in these data.

Tested on: P388 leukemia ip, CD2F1 mice, survival T/C
Experiment: NCI In Vivo Anticancer Drug Screen. Data for tumor model P388 Leukemia (intraperitoneal) in CD2F1 (CDF1) mice
Settings: endpoint: median survival time, higher = longer survival
In short: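 Mice carrying the transplanted tumor received test compound or vehicle. Survival was recorded in each group, and the value is the treated-group measurement divided by that of the vehicle-treated control group.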

[1] = dose: 50.0 mg/kg/injection, schedule: Q01DX009 (ip), vehicle: saline
[2] = dose: 100.0 mg/kg/injection, schedule: Q01DX009 (ip), vehicle: saline
[3] = dose: 200.0 mg/kg/injection, schedule: Q01DX009 (ip), vehicle: saline
[4] = dose: 100.0 mg/kg/injection, schedule: Q01DX009 (ip), vehicle: saline with Tween-80
[5] = dose: 200.0 mg/kg/injection, schedule: Q01DX009 (ip), vehicle: saline with Tween-80
[6] = dose: 25.0 mg/kg/injection, schedule: Q01DX009 (ip), vehicle: Klucel (hydroxypropylcellulose) (HPC)
[7] = dose: 50.0 mg/kg/injection, schedule: Q01DX009 (ip), vehicle: Klucel (hydroxypropylcellulose) (HPC)

Measured: T/C

CCOC(=O)CSc1ccc(C)cc1
inactive: dose: 25.0 mg/kg/injection, schedule: Q01DX009 (ip), vehicle: saline 105 % of control | [1] 89 % of control | [2] 96 % of control | [3] 99 % of control

Cc1ccc(S(=O)(=O)OC2CCCC2)cc1
inactive: dose: 50.0 mg/kg/injection, schedule: Q01DX009 (ip), vehicle: other 100 % of control | dose: 100.0 mg/kg/injection, schedule: Q01DX009 (ip), vehicle: other 103 % of control | dose: 200.0 mg/kg/injection, schedule: Q01DX009 (ip), vehicle: other 89 % of control

O=S(=O)(O)SCCCSS(=O)(=O)O
inactive: [1] 100 % of control | [2] 99 % of control | [3] 102 % of control

O=C(O)c1cccnc1Cl
inactive: dose: 50.0 mg/kg/injection, schedule: Q01DX009 (ip), vehicle: saline with Tween-80 103 % of control | [4] 96 % of control | [5] 100 % of control

Nc1ccc2nc3c(N)ccc(N)c3nc2c1
inactive: dose: 3.75 mg/kg/injection, schedule: Q01DX005 (ip), vehicle: saline 100 % of control and 103 % of control | dose: 7.5 mg/kg/injection, schedule: Q01DX005 (ip), vehicle: saline 100 % of control and 105 % of control | dose: 15.0 mg/kg/injection, schedule: Q01DX005 (ip), vehicle: saline 100 % of control and 109 % of control | dose: 30.0 mg/kg/injection, schedule: Q01DX005 (ip), vehicle: saline 111 % of control and 116 % of control | dose: 60.0 mg/kg/injection, schedule: Q01DX005 (ip), vehicle: saline 116 % of control | dose: 120.0 mg/kg/injection, schedule: Q01DX005 (ip), vehicle: saline 118 % of control

c1ccc2cc(-c3nc4cccc5c4n3CCC5)ccc2c1
inactive: [4] 105 % of control | [5] 95 % of control | dose: 400.0 mg/kg/injection, schedule: Q01DX009 (ip), vehicle: saline with Tween-80 115 % of control

CC(=O)Oc1ccc2ccc(=O)oc2c1OC(C)=O
inactive: [6] 102 % of control | [7] 101 % of control | dose: 100.0 mg/kg/injection, schedule: Q01DX009 (ip), vehicle: Klucel (hydroxypropylcellulose) (HPC) 109 % of control | dose: 200.0 mg/kg/injection, schedule: Q01DX009 (ip), vehicle: Klucel (hydroxypropylcellulose) (HPC) 118 % of control

Cc1ccc(S(=O)(=O)N=P(c2ccccc2)(c2ccccc2)c2ccccc2)cc1
inactive: [4] 91 % of control | [5] 95 % of control

c1cc2cc(C3=NCCN3)[nH]c2cc1C1=NCCN1
inactive: dose: 12.5 mg/kg/injection, schedule: Q01DX005 (ip), vehicle: saline 98 % of control | dose: 25.0 mg/kg/injection, schedule: Q01DX005 (ip), vehicle: saline 103 % of control | dose: 50.0 mg/kg/injection, schedule: Q01DX005 (ip), vehicle: saline 99 % of control

C=CCC1(C(C)C(O)c2cc(OC)c(OC)c(OC)c2)CC(O)C=CC12OCCO2 (stereo not given)
inactive: dose: 1.25 mg/kg/injection, schedule: Q01DX005 (ip), vehicle: acid diluted with saline 94 % of control | dose: 2.5 mg/kg/injection, schedule: Q01DX005 (ip), vehicle: acid diluted with saline 103 % of control | dose: 5.0 mg/kg/injection, schedule: Q01DX005 (ip), vehicle: acid diluted with saline 100 % of control | dose: 10.0 mg/kg/injection, schedule: Q01DX005 (ip), vehicle: acid diluted with saline 100 % of control

O=c1[nH]c(=S)[nH]cc1Oc1ccc(I)cc1
inactive: dose: 12.5 mg/kg/injection, schedule: Q01DX009 (ip), vehicle: Klucel (hydroxypropylcellulose) (HPC) 106 % of control | [6] 107 % of control | [7] 104 % of control

C=C(C)C12OC3(CCCCCCCCC)OC1C1C4OC4(CO)C(O)C4(O)C(=O)C(C)=CC4C1(O3)C(C)C2OC(C)=O (stereo not given)
inactive: dose: 12.5 micrograms/kg/injection, schedule: Q01DX009 (ip), vehicle: saline + alcohol 101 % of control | dose: 25.0 micrograms/kg/injection, schedule: Q01DX009 (ip), vehicle: saline + alcohol 104 % of control | dose: 50.0 micrograms/kg/injection, schedule: Q01DX009 (ip), vehicle: saline + alcohol 104 % of control | dose: 100.0 micrograms/kg/injection, schedule: Q01DX009 (ip), vehicle: saline + alcohol 104 % of control | dose: 200.0 micrograms/kg/injection, schedule: Q01DX009 (ip), vehicle: saline + alcohol 123 % of control

O=C1C(N=Nc2ccccc2)Sc2nc3ccccc3n21 (stereo not given)
inactive: dose: 60.0 mg/kg/injection, schedule: Q01DX005 (ip), vehicle: Klucel (hydroxypropylcellulose) (HPC) 90 % of control | dose: 120.0 mg/kg/injection, schedule: Q01DX005 (ip), vehicle: Klucel (hydroxypropylcellulose) (HPC) 86 % of control
